Assay results published in ChEMBL document CHEMBL1811886 (J Med Chem, 2011).

How the values were obtained:
Histamine H3 receptor [1] = molecular target: Histamine H3 receptor (Rattus norvegicus, UniProt Q9QYN8); assay: Displacement of [3H]NAMH from rat histamine H3 receptor expressed in CHO cells; format: cell-based
Histamine H3 receptor [2] = molecular target: Histamine H3 receptor (Homo sapiens, UniProt Q9Y5N1); assay: Displacement of [3H]NAMH from human histamine H3 receptor expressed in CHO cells; format: cell-based
[3] = Systemic clearance in fasted Sprague-Dawley rat at 1 mg/kg, iv after 6 to 24 hrs by LC-MS/MS analysis; format: ADME, organism-based; parameters: dose 1 mg/kg, route intravenous; conditions: in vivo
[4] = Oral bioavailability in fasted Sprague-Dawley rat at 5 mg/kg after 6 hrs by LC-MS/MS analysis; format: ADME, organism-based; conditions: in vivo
[5] = Ratio of drug uptake in brain to plasma of fasted Sprague-Dawley rat at 1 mg/kg, iv after 6 to 24 hrs by LC-MS/MS analysis; format: ADME, organism-based; parameters: dose 1 mg/kg, route intravenous; conditions: read-out: BPR
[6] = Terminal half life in fasted Sprague-Dawley rat at 1 mg/kg, iv after 6 to 24 hrs by LC-MS/MS analysis; format: ADME, organism-based; parameters: dose 1 mg/kg, route intravenous; conditions: in vivo, read-out: beta t1/2 (converted)
[7] = Dissociation constant, pKa of the compound; format: physicochemical
[8] = Bioavailability in fasted Sprague-Dawley rat at 1 mg/kg, iv after 6 to 24 hrs by LC-MS/MS analysis; format: ADME, organism-based; conditions: in vivo

Chain of Histamine H3 receptor (Rattus norvegicus, UniProt Q9QYN8) (Q9QYN8 whole entry): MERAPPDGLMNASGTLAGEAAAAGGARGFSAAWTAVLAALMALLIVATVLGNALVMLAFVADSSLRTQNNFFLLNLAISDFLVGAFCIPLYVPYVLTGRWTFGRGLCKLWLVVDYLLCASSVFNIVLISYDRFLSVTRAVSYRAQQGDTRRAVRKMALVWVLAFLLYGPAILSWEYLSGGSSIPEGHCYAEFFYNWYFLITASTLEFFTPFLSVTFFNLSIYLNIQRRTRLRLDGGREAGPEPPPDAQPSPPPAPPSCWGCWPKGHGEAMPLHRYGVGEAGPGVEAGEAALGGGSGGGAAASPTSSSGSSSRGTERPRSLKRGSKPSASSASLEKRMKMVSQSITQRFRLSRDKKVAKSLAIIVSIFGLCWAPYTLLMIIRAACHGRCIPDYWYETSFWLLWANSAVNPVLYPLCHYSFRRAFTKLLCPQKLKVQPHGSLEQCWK
Chain of Histamine H3 receptor (Homo sapiens, UniProt Q9Y5N1) (Q9Y5N1 whole entry): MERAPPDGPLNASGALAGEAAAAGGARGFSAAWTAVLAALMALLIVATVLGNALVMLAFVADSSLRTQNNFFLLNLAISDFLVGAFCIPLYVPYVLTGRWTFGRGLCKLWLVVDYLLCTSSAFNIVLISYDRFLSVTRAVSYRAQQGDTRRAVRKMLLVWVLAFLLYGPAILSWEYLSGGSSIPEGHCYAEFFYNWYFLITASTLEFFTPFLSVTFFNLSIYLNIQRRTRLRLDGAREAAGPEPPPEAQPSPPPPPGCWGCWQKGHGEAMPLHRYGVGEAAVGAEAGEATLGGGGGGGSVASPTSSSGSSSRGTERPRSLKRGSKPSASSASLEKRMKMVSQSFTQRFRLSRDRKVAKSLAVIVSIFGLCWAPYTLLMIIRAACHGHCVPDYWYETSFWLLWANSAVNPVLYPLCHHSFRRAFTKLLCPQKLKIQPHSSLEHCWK

Ki (Histamine H3 receptor [1]) [nM]	Ki (Histamine H3 receptor [2]) [nM]	clearance [3] [mL/min/kg]	bioavailability [4] [%]	Kp [5]	half-life [6] [h]	pKa [7]	bioavailability [8] [%]	Compound
347	82	–	–	–	–	–	–	C[C@@H]1CCCN1CCCOc1ccc(-n2ncccc2=O)cc1
37	8.7	4.9	11	1.9	0.9	–	–	O=c1ccc(-c2ccc(OCCCN3CCCCC3)cc2)n[nH]1
822	767	–	–	–	–	7.1	–	O=c1ccc(-c2ccc(OCCCN3CCOCC3)cc2)n[nH]1
7.9	2.5	11.7	10	6.2	2.1	–	–	C[C@@H]1CCCN1CCCOc1ccc(-c2ccc(=O)n(-c3ccccc3)n2)cc1
48	–	90	43	1.4	1	–	–	Cn1nc(-c2ccc(OCCCN3CCC[C@H]3CO)cc2)ccc1=O
–	–	39	–	32	1.5	–	> 18	C[C@@H]1CCCN1CCc1cc2cc(-c3ccc(C#N)cc3)ccc2o1
50	16	14.5	25	3.1	1.6	–	–	C[C@H]1CCCN1CCCOc1ccc(-c2ccc(=O)[nH]n2)cc1
11	3.9	238	18	1.5	0.4	–	–	CCn1nc(-c2ccc(OCCCN3CCC[C@H]3C)cc2)ccc1=O
